Assays:
clonal stem cells (AP14) = experiment: BrdU labeling of ACSC cultures during RA treatment; assay type: cell-based, rat
Method: (§1) Cell Culture. For proliferating conditions, clonal stem cells (AP14) were cultured in Dulbecco's Modified Eagles Medium/Ham's F12 (DMEM/F12, 1:1) containing N2 supplement (Gibco BRL, Gaithersburg, Md.) and 20 ng/ml rhFGF-2 (provided by A. Baird, Prizm Pharmaceuticals Inc., La Jolla, Calif.). Culture dishes (Becton Dickinsin Labware, Lincoln Park, N.J.) were coated with polyomithine and mouse laminin as previously described by Ray, et al., Proliferation, differentiation and long-term culture of primary hippocampal neurons, Proc Natl Acad Sci USA 90:3602-3606 (1993). For differentiation experiments, cells were plated into polyornithine/laminin coated glass chamber slides (Nunc, Naperville, Ill.) at a density of 2.5—103 per cm2. The cells were incubated for 24 hrs in normal N2 medium containing 20 ng/ml FGF-2, and then the medium was replaced by N2 medium containing 0.5% […] (FBS) and 0.01% DMSO (control solvent) or […] all-trans retinoic acid (Sigma, St. Louis, Mo.). For further differentiation, the medium was replaced by N2 medium containing 0.5% FBS and one of the following: sterile water (control solvent), mouse 2.55 NGF (50 ng/ml, Boehringer Mannheim, Indianapolis, Ind.), rhBDNF (20 ng/ml, Alomone Labs, Jerusalem, Israel), rhNT-3 (40 ng/ml, Genentech, South San Francisco, Calif.). The medium was replaced every two days. For inhibition of the tyrosine kinase activity of the Trk receptors, K-252a (100 nM, Calbiochem, San Diego, Calif.) was added to the medium.
BrdU Labeling and Visualization. Cells plated as described above were treated with BrdU ([…], Sigma) for 24 hrs before fixation. Then the cells were fixed with tris-buffered 4% paraformaldehyde for 15 min. incubated with tris-buffered 0.6% H2O2 for 30 min, and treated with 50% formamide/2×SSC for 2 hrs followed by a 30-min incubation in 2N HCl, and a neutralization in 0.1M borate (Na2B4O7) for 10 min. Cells were incubated with a-BrdU monoclonal antibody (1:400, Boehringer Mannheim) overnight at 4° C., and incubated with biotinylated horse anti-mouse secondary antibody (1:80, Jackson Immunoresearch, West Grove, Pa.) for 1 hr. Reactive cells were visualized with the avidin/biotin-peroxidase system (Vectastain Elite, Vector Laboratories, Burlingame, Calif.) and diaminobenzidine.
Upregulation of p21 was accompanied by a decrease in the number of dividing cells as evidenced by BrdU incorporation. Cultures were treated with RA for 2, 4, or 6 days and then pulsed with […] bromodeoxyuridine (BrdU) for 24 hrs on the last day of RA treatment. Cells were then fixed and processed for BrdU immunocytochemistry. In the presence of RA, there was a dramatic change in cell morphology, and a gradual decrease in the total number and proportion of BrdU-positive cells. Within 6 days of RA treatment, most of the phase-bright cells extended elaborate processes and only 29% of the cells were BrdU-positive, whereas in the serum-alone control treatment most of the cells continued to proliferate and retained rudimentary process morphology. In proliferative FGF-2-stimulated controls, more than 95% of the cells were labeled every 24 hrs.
Although proliferation decreased in response to RA, it is possible that the few remaining proliferating cells were contributing to the increase in neurons observed following RA treatment. To determine if RA induced a selective expansion of neuronal precursors, parallel cultures were treated with RA for 6 days followed by an additional 6 days in 0.5% serum alone. One set of cultures was fixed on days 2, 4, 6, 8, 10, and 12 and stained with 4,6-diamidino-2-phenylindole (DAPI) and the total number of nuclei was counted. Additional cultures were pulsed with BrdU for 72 hrs on days 0-3, 3-6, 6-9 or 9-12. The cultures were then fixed on day 12 and evaluated for the proportion of Map2ab-IR cells that had incorporated BrdU. […]

c-Fos = c-Fos immunofluorescence double labeling after neurotrophin stimulation; assay type: cell-based, rat; settings: RA for 6 days prior to stimulation by neurotrophins
Method: as §1, with “For further differentiation, the medium was replaced by N2 medium containing 0.5% FBS and one of the following: sterile water (control solvent), mouse 2.55 NGF (50 ng/ml, Boehringer Mannheim, Indianapolis, Ind.), rhBDNF (20 ng/ml, Alomone Labs, Jerusalem, Israel), rhNT-3 (40 ng/ml, Genentech, South San Francisco, Calif.). The medium was replaced every two days. For inhibition of the tyrosine kinase activity of the Trk receptors, K-252a (100 nM, Calbiochem, San Diego, Calif.) was added to the medium.” left out
Immunofluorescence. […] Both the average percentage and the absolute number +/− SEM of immunofluorescent cells were determined by counting 10 or 50 high power fields (20×) visualized under fluorescence. The total number of cells was counted using nuclear counterstaining with 4′,6diamidino-2-phenylindole (DAPI, Sigma). […]

Row | Compound | Map2ab-IR neurons that divided (BrdU) (clonal stem cells (AP14); after 6 days of RA treatment) [%] | Map2ab-IR cells that divided (BrdU) (clonal stem cells (AP14); days 3-6 of RA treatment) | neurons labeled with BrdU (clonal stem cells (AP14); first 24 hours upon application of RA) | neurons labeled with BrdU (clonal stem cells (AP14); second day following RA treatment) | Map2ab-IR cells that divided (BrdU) (clonal stem cells (AP14); three days immediately following start of RA treatment, 72 hr pulse) | BrdU-positive cells (clonal stem cells (AP14); within 6 days of RA treatment, 24 hr BrdU pulse) [%] | number of c-Fos-positive cells (c-Fos) | cells labeled every 24 hrs (BrdU) (clonal stem cells (AP14); proliferative FGF-2-stimulated controls)
1 | CC1=C(/C=C/C(C)=C/C=C/C(C)=C/C(=O)O)C(C)(C)CCC1 [RA, all-trans retinoic acid] | < 0.5 | Less than 5% | 19 +/− 3% | 3 +/− 1% | Less than one third | 29 | significantly enhanced | –
2 | FGF-2: basic fibroblast growth factor, human recombinant, prepared in E. coli | – | – | – | – | – | – | – | more than 95%
